{
  "source": "patent US20260193317A1",
  "about": "“COMBINATION THERAPY WITH ACTRIIB RECEPTOR VARIANTS AND GLP-1 AGONISTS” (35PHARMA Inc., priority 2023, published 2026)",
  "assay_type_in_all_cases": "in vivo",
  "key": {"DIO mice": {"system": "DIO mice", "assay": "Body composition in high fat diet mice, alone and in combination with incretin mimetics", "conditions": "for Fat mass (% change from baseline) / Lean mass (% change from baseline): as E44, NMR", "protocol": "Experiments were performed in vivo to investigate the potential for additive or synergistic effects between exemplary ActRIIB-ECD polypeptide constructs and incretin mimetics."}, "[1]": {"assay": "Coformulation of P1372 and semaglutide: weight and body composition in mice (FIG. 18)"}, "[2]": {"assay": "Single subcutaneous injection in CD-1 mice: body weight", "conditions": "CD-1 male mice, single s.c. injection; P1229 50 mg/kg, semaglutide 2 mg/kg"}, "[3]": {"system": "follicle-stimulating hormone (FSH)", "assay": "Circulating FSH levels in CD-1 mice", "conditions": "single s.c. injection, P1229 50 mg/kg, semaglutide 2 mg/kg", "description": "Finally, circulating FSH levels were assessed throughout the study (FIG. 20D). […] This confirms that the expected pharmacodynamic effect of P1229 was not altered in the context of the co-formulation."}},
  "data": [
    {"substance": "semaglutide [reference compound]", "values": [
      {"measurement": "Body weight (% change from baseline)", "setting": "DIO mice; DIO mice, 21 days s.c., P1307 20 mg/kg weekly, P1229 40 mg/kg twice weekly, semaglutide 40 μg/kg daily, tirzepatide 45 μg/kg daily, alone or combined", "value": "−17.5", "unit": "%"},
      {"measurement": "visceral, epididymal, pericardial, peri-renal, and retroperitoneal white adipose tissue weights", "setting": "DIO mice; DIO mice, D21", "value": "significantly decreased all white adipose tissue weights"},
      {"measurement": "gastrocnemius and tibialis anterior weights", "setting": "DIO mice; DIO mice, D21, P1229 with or without caloric restriction", "value": "no significant effect on muscle weights"},
      {"measurement": "Fat mass (% change from baseline)", "setting": "DIO mice", "value": "−30.3", "unit": "%"},
      {"measurement": "Lean mass (% change from baseline)", "setting": "DIO mice", "value": "−10.6", "unit": "%"},
      {"measurement": "Fat mass (% change from baseline)", "setting": "DIO mice; listed as semaglutide", "value": "−30.3", "unit": "%"},
      {"measurement": "Lean mass (% change from baseline)", "setting": "DIO mice; listed as semaglutide", "value": "−10.6", "unit": "%"},
      {"measurement": "lean muscle mass", "setting": "[1]; 3 weeks", "value": "significant loss of lean muscle mass"},
      {"measurement": "total weight loss", "setting": "[1]; 3 weeks after treatment", "value": "significant weight loss"},
      {"measurement": "body weight", "setting": "[2]", "value": "decreased body weight"},
      {"measurement": "decrease of circulating FSH levels", "setting": "[3]", "value": "did not show a significant effect"}
    ]}
  ]
}
